Data taken from PubChem BioAssay (NCI).
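1) Cells in 96-well plates. 2) Compound, 48 h, 5 concentrations. 3) Linear interpolation between surrounding doses. 4) Unreached endpoint = highest concentration. GI50: concentration for 50% inhibition of growth. TGI is the concentration that stops growth completely.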

Tests used:
Assay in all cases: NCI tumour cell line growth inhibition, 48 h
IGROV1 ovarian = system: IGROV1 ovarian
SN12C renal = system: SN12C renal
SNB-75 CNS = system: SNB-75 CNS
OVCAR-8 ovarian = system: OVCAR-8 ovarian
A498 renal = system: A498 renal
786-0 renal = system: 786-0 renal
U251 CNS = system: U251 CNS
HS 578T breast = system: HS 578T breast
COLO 205 colon = system: COLO 205 colon
HT29 colon = system: HT29 colon
OVCAR-3 ovarian = system: OVCAR-3 ovarian
SK-MEL-28 melanoma = system: SK-MEL-28 melanoma
SR leukemia = system: SR leukemia
NCI-H226 lung = system: NCI-H226 lung
NCI/ADR-RES ovarian = system: NCI/ADR-RES ovarian
SNB-19 CNS = system: SNB-19 CNS
NCI-H460 lung = system: NCI-H460 lung
SF-539 CNS = system: SF-539 CNS
T-47D breast = system: T-47D breast
LOX IMVI melanoma = system: LOX IMVI melanoma
SK-OV-3 ovarian = system: SK-OV-3 ovarian
RPMI-8226 leukemia = system: RPMI-8226 leukemia
MCF7 breast = system: MCF7 breast
K-562 leukemia = system: K-562 leukemia
SF-295 CNS = system: SF-295 CNS
CCRF-CEM leukemia = system: CCRF-CEM leukemia
UACC-257 melanoma = system: UACC-257 melanoma
M14 melanoma = system: M14 melanoma
MOLT-4 leukemia = system: MOLT-4 leukemia
ACHN renal = system: ACHN renal
TK-10 renal = system: TK-10 renal
HOP-62 NSCLC = system: HOP-62 NSCLC
MDA-MB-435 = system: MDA-MB-435
UACC-62 melanoma = system: UACC-62 melanoma
NCI-H23 lung = system: NCI-H23 lung
BT-549 breast = system: BT-549 breast
DU-145 prostate = system: DU-145 prostate
HCT-116 colon = system: HCT-116 colon
CAKI-1 renal = system: CAKI-1 renal
NCI-H522 lung = system: NCI-H522 lung
A549 NSCLC = system: A549 NSCLC
HCT-15 colon = system: HCT-15 colon
RXF 393 renal = system: RXF 393 renal
MALME-3M melanoma = system: MALME-3M melanoma
SK-MEL-2 melanoma = system: SK-MEL-2 melanoma
OVCAR-4 ovarian = system: OVCAR-4 ovarian
UO-31 renal = system: UO-31 renal
HL-60(TB) leukemia = system: HL-60(TB) leukemia
KM12 colon = system: KM12 colon
PC-3 prostate = system: PC-3 prostate
SW-620 colon = system: SW-620 colon
HOP-92 NSCLC = system: HOP-92 NSCLC
SF-268 CNS = system: SF-268 CNS
HCC-2998 colon = system: HCC-2998 colon
OVCAR-5 ovarian = system: OVCAR-5 ovarian
MDA-MB-231 breast = system: MDA-MB-231 breast

With `COC1CC2C=C(C)/C=C/C=C/C(=O)NC(c3ccccc3)C/C=C/CCC(O)CC(=O)C2=C1O` (configuration not stated) the GI50 (IGROV1 ovarian) was 444 nM, the TGI (IGROV1 ovarian) was 1840 nM and the GI50 (SN12C renal) was 227 nM. For the same compound, the TGI (SN12C renal) was 1110 nM, the GI50 (SNB-75 CNS) was 208 nM and the TGI (SNB-75 CNS) was 828 nM. For the same compound, the GI50 (OVCAR-8 ovarian) was 208 nM, the TGI (OVCAR-8 ovarian) was 904 nM and the GI50 (A498 renal) was 166 nM. It also gave a TGI (A498 renal) of 654 nM, a GI50 (786-0 renal) of 434 nM and a TGI (786-0 renal) of 1660 nM. The GI50 (U251 CNS) was 153 nM, the TGI (U251 CNS) was 994 nM and the GI50 (HS 578T breast) was 393 nM. It also gave a TGI (HS 578T breast) of 1910 nM, a GI50 (COLO 205 colon) of 159 nM and a TGI (COLO 205 colon) of 315 nM. For the same compound, the GI50 (HT29 colon) was 238 nM, the TGI (HT29 colon) was 854 nM and the GI50 (OVCAR-3 ovarian) was 271 nM. It also gave a TGI (OVCAR-3 ovarian) of 894 nM, a GI50 (SK-MEL-28 melanoma) of 703 nM and a TGI (SK-MEL-28 melanoma) of 2030 nM. It also gave a GI50 (SR leukemia) of 95.6 nM, a TGI (SR leukemia) of 794 nM and a GI50 (NCI-H226 lung) of 430 nM. For the same compound, the TGI (NCI-H226 lung) was 2170 nM, the GI50 (NCI/ADR-RES ovarian) was 309 nM and the TGI (NCI/ADR-RES ovarian) was 1190 nM. It also gave a GI50 (SNB-19 CNS) of 279 nM, a TGI (SNB-19 CNS) of 1420 nM and a GI50 (NCI-H460 lung) of 240 nM. The TGI (NCI-H460 lung) was 1190 nM, the GI50 (SF-539 CNS) was 280 nM and the TGI (SF-539 CNS) was 912 nM. It also gave a GI50 (T-47D breast) of 264 nM, a TGI (T-47D breast) of 871 nM and a GI50 (LOX IMVI melanoma) of 297 nM. The TGI (LOX IMVI melanoma) was 1220 nM, the GI50 (SK-OV-3 ovarian) was 369 nM and the TGI (SK-OV-3 ovarian) was 1460 nM. The GI50 (RPMI-8226 leukemia) was 186 nM, the TGI (RPMI-8226 leukemia) was 566 nM and the GI50 (MCF7 breast) was 169 nM. The TGI (MCF7 breast) was 776 nM, the GI50 (K-562 leukemia) was 212 nM and the TGI (K-562 leukemia) was 1030 nM. The GI50 (SF-295 CNS) was 246 nM, the TGI (SF-295 CNS) was 788 nM and the GI50 (CCRF-CEM leukemia) was 284 nM. The TGI (CCRF-CEM leukemia) was 1300 nM, the GI50 (UACC-257 melanoma) was 186 nM and the TGI (UACC-257 melanoma) was 577 nM. The GI50 (M14 melanoma) was 310 nM, the TGI (M14 melanoma) was 1470 nM and the GI50 (MOLT-4 leukemia) was 364 nM. The TGI (MOLT-4 leukemia) was 1400 nM, the GI50 (ACHN renal) was 311 nM and the TGI (ACHN renal) was 1140 nM. For the same compound, the GI50 (TK-10 renal) was 298 nM, the TGI (TK-10 renal) was 1310 nM and the GI50 (HOP-62 NSCLC) was 275 nM. The TGI (HOP-62 NSCLC) was 1530 nM, the GI50 (MDA-MB-435) was 313 nM and the TGI (MDA-MB-435) was 1290 nM. It also gave a GI50 (UACC-62 melanoma) of 318 nM, a TGI (UACC-62 melanoma) of 1540 nM and a GI50 (NCI-H23 lung) of 240 nM. For the same compound, the TGI (NCI-H23 lung) was 1110 nM, the GI50 (BT-549 breast) was 261 nM and the TGI (BT-549 breast) was 1170 nM. The GI50 (DU-145 prostate) was 405 nM, the TGI (DU-145 prostate) was 1570 nM and the GI50 (HCT-116 colon) was 272 nM. It also gave a TGI (HCT-116 colon) of 1220 nM, a GI50 (CAKI-1 renal) of 314 nM and a TGI (CAKI-1 renal) of 1010 nM. The GI50 (NCI-H522 lung) was 211 nM, the TGI (NCI-H522 lung) was 693 nM and the GI50 (A549 NSCLC) was 241 nM. For the same compound, the TGI (A549 NSCLC) was 1150 nM, the GI50 (HCT-15 colon) was 274 nM and the TGI (HCT-15 colon) was 1290 nM. For the same compound, the GI50 (RXF 393 renal) was 314 nM, the TGI (RXF 393 renal) was 1090 nM and the GI50 (MALME-3M melanoma) was 214 nM. It also gave a TGI (MALME-3M melanoma) of 1190 nM, a GI50 (SK-MEL-2 melanoma) of 223 nM and a TGI (SK-MEL-2 melanoma) of 600 nM. For the same compound, the GI50 (OVCAR-4 ovarian) was 294 nM, the TGI (OVCAR-4 ovarian) was 1080 nM and the GI50 (UO-31 renal) was 281 nM. The TGI (UO-31 renal) was 1140 nM, the GI50 (HL-60(TB) leukemia) was 153 nM and the TGI (HL-60(TB) leukemia) was 406 nM. It also gave a GI50 (KM12 colon) of 332 nM, a TGI (KM12 colon) of 1260 nM and a GI50 (PC-3 prostate) of 289 nM. The TGI (PC-3 prostate) was 1160 nM, the GI50 (SW-620 colon) was 310 nM and the TGI (SW-620 colon) was 1360 nM. For the same compound, the GI50 (HOP-92 NSCLC) was 141 nM, the TGI (HOP-92 NSCLC) was 457 nM and the GI50 (SF-268 CNS) was 365 nM. The TGI (SF-268 CNS) was 1510 nM, the GI50 (HCC-2998 colon) was 558 nM and the TGI (HCC-2998 colon) was 1940 nM. The GI50 (OVCAR-5 ovarian) was 357 nM, the TGI (OVCAR-5 ovarian) was 1240 nM and the GI50 (MDA-MB-231 breast) was 270 nM. For the same compound, the TGI (MDA-MB-231 breast) was 961 nM.
